This passage reports Ki results from patent US20230174484A1, “ANTAGONISTS OF GPR39 PROTEIN” (Oregon Health & Science University, priority 2020, published 2023).

Bounds are passed on as bounds.

This experiment has as its target T1, human GPR39 receptor (Homo sapiens, UniProt O43194).
T1 construct: PC3 Cells, Expressing the Endogenous Human GPR39 Receptor; endogenous in cells; host or cells: PC3 (human prostate adenocarcinoma) cells
T1 sequence (O43194 1-453): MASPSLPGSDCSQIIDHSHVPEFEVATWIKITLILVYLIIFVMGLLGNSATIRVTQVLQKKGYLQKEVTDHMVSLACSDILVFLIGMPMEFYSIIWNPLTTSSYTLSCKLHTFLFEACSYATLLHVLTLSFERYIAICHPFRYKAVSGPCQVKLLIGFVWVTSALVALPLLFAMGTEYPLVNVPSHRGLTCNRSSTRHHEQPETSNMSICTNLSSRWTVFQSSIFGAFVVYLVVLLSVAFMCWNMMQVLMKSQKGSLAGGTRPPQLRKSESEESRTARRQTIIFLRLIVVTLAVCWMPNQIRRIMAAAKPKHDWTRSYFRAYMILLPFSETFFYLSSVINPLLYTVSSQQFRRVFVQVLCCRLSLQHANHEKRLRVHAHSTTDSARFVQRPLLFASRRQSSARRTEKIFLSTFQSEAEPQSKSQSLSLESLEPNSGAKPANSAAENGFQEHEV
The experiment in a line: Measurement of intracellular calcium response in PC3 cells (FLIPR), antagonism of the C3 agonist response. The format is cell-based. The conditions noted are these: functional pKi (modified Cheng-Prusoff), inhibition of the C3 (TC-G 1008) response at EC90, 30 μM ZnCl2, read-out: fpKi activity. Put shortly:
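Potency was reported as fpKi, converted by modified Cheng-Prusoff from four-parameter IC50 fits against an EC90 C3 agonist challenge. Calcium-6 FLIPR readings used PC3 cells naturally expressing human GPR39, in pH 7.4 HEPES buffer containing 30 μM final ZnCl2. Score bands: +/± <5.2, + 5.2–5.9, ++ 6.0–6.5, +++ 6.6–7.2, ++++ ≥7.3.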
As to `Cc1nnc(-c2ccc(C(=O)N3CCC(F)(F)CC3)c(-n3ccc(C(C)C)n3)c2)[nH]1` [Example 210, (4,4-difluoropiperidin-1-yl)-[4-(5-methyl-4H-1,2,4-triazol-3-yl)-2-(3-propan-2-ylpyrazol-1-yl)phenyl]methanone], the Ki was no more than 50.1 nM. For `CC1CC(C)CN(c2cc(NC(=O)C3CC3)ccc2-c2nnc(Sc3ccccc3)n2C)C1` (centres unmarked) [Example 114c, N-[3-(3,5-dimethylpiperidin-1-yl)-4-(4-methyl-5-phenylsulfanyl-1,2,4-triazol-3-yl)phenyl]cyclopropanecarboxamide] the value was 63.1 to 251 nM; for `O=C(NCc1cccnc1)c1ccc(NC(=O)C2CC2)cc1N1CCCCCC1` [Example 44, 2-(azepan-1-yl)-4-(cyclopropanecarbonylamino)-N-(pyridin-3-ylmethyl)benzamide], 1260 to 6310 nM; for `CN1CCn2c(cnc2-c2ccc(NC(=O)C3CC3)cc2N2CCCC2)C1` [Example 103, N-[4-(7-methyl-6,8-dihydro-5H-imidazo[1,5-a]pyrazin-3-yl)-3-pyrrolidin-1-ylphenyl]cyclopropanecarboxamide], 316 to 1000 nM. For `C[C@@H]1C[C@H](C)CN(c2cc(NC(=O)C3CC3)ccc2-c2nnc(Sc3ccccc3)n2C)C1` [Example 114b, N-[3-(3,5-dimethylpiperidin-1-yl)-4-(4-methyl-5-phenylsulfanyl-1,2,4-triazol-3-yl)phenyl]cyclopropanecarboxamide] the value was 63.1 to 251 nM. For `O=C(Nc1ccc(C(=O)N2CC[S+]([O-])CC2c2ccccc2)c(N2CCCC2)c1)C1CC1` (racemic) [Example 169, N-[4-(1-oxo-3-phenyl-1,4-thiazinane-4-carbonyl)-3-pyrrolidin-1-ylphenyl]cyclopropanecarboxamide], the Ki fell in the range of 1260 to 6310 nM. For `CN1CCN(C(=O)c2ccc(NC(=O)C3CC3)cc2N2CCC(F)(F)C2)C(c2ccccc2)C1` (racemic) [Example 202c, N-[3-(3,3-difluoropyrrolidin-1-yl)-4-(4-methyl-2-phenylpiperazine-1-carbonyl)phenyl]cyclopropanecarboxamide] the value was 63.1 to 251 nM; for `CCCN1CCN(C(=O)c2ccc(NC(=O)C3CC3)cc2N2CCCOCC2)CC1` [Example 3, N-[3-(1,4-oxazepan-4-yl)-4-(4-propylpiperazine-1-carbonyl)phenyl]cyclopropanecarboxamide], 316 to 1000 nM.

With `CCCN1CCN(C(=O)c2ccc(NC(=O)C3CC3)cc2N2CCCCCC2)C(c2ccccc2)C1` (racemic) [Example 73c, N-[3-(azepan-1-yl)-4-(2-phenyl-4-propylpiperazine-1-carbonyl)phenyl]Cyclopropanecarboxamide], the Ki was no more than 50.1 nM. For `CCCN1CCN(C(=O)c2ccc(NC(=O)C3CC3)cc2N2CCCCCC2)C(c2ccccc2)C1` (single isomer, unassigned) [Example 73b, N-[3-(azepan-1-yl)-4-(2-phenyl-4-propylpiperazine-1-carbonyl)phenyl]Cyclopropanecarboxamide] the value was 1260 to 6310 nM; for `CCCN1CCN(C(=O)c2ccc(NC(=O)C(C)C)cc2N2CCCCCC2)CC1` [Example 93, N-(3-(azepan-1-yl)-4-(4-propylpiperazine-1-carbonyl)phenyl)isobutyramide], 316 to 1000 nM; for `CN1CCN(C(=O)c2ccc(NC(=O)C3CC3)nc2N2CCCC2)C(c2ccccc2)C1` (single isomer, unassigned) [Example 149a, (2R or 2S) N-[5-(4-methyl-2-phenylpiperazine-1-carbonyl)-6-pyrrolidin-1-ylpyridin-2-yl] cyclopropanecarboxamide], 63.1 to 251 nM. Consider `O=C(c1ccc(-c2nnc(C3CC3)[nH]2)cc1N1CCCC1)N1CCC(C(F)(F)F)CC1` [Example 154], for which the Ki was in the range of 63.1 to 251 nM. The same measure for `CN1CCN(C(=O)c2ccc(NC(=O)C3CC3)cc2N2CCCC2)C(c2cccc(F)c2)C1` (single isomer, unassigned) [Example 88a, N-[4-[2-(3-fluorophenyl)-4-methylpiperazine-1-carbonyl]-3-pyrrolidin-1-ylphenyl]cyclopropanecarboxamide]: 63.1 to 251 nM.
